Our source for the Ratio Ki and Ki values is ChEMBL document CHEMBL3124825, “Benzimidazole: an emerging scaffold for analgesic and anti-inflammatory agents” (Eur J Med Chem, 2014).

The species entered for one experiment is Homo sapiens. Briefly: Selectivity ratio of Ki for human CB1 receptor to Ki for human CB2 receptor.
The target of the next experiment is Cannabinoid receptor 2 (Homo sapiens, UniProt P34972). Nature of the experiment: Agonist activity at human CB2 receptor.
For the next experiment, the target named is Cannabinoid receptor 1 (Homo sapiens, UniProt P21554). Nature of the experiment: Agonist activity at human CB1 receptor.
Cannabinoid receptor 1, sequence (P21554 whole entry): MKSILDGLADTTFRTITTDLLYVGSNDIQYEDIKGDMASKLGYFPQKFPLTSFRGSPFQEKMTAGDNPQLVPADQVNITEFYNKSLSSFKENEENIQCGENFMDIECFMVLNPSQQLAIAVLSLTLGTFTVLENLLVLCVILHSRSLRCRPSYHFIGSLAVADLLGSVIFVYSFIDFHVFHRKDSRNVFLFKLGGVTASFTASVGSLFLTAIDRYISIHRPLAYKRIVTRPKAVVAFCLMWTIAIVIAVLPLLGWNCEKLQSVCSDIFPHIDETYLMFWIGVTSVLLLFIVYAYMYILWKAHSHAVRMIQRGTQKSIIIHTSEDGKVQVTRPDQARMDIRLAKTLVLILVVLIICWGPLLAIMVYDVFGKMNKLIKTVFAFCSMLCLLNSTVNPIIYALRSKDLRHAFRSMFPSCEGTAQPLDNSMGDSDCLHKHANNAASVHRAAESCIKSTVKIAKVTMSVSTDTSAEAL

Cannabinoid receptor 2, sequence (P34972 whole entry): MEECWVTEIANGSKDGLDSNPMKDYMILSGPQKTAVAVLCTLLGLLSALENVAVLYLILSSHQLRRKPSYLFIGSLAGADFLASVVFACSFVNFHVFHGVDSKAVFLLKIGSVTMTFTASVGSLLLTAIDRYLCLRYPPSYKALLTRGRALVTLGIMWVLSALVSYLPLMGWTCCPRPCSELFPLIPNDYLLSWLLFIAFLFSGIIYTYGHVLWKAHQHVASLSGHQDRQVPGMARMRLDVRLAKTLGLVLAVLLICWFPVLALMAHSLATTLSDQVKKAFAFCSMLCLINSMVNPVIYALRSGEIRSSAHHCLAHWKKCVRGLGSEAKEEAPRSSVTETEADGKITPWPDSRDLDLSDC

With `CCOc1ccc(Cc2nc3cc(C(=O)N(C)CC)ccc3n2CCC(C)C)cc1`, in the experiment listed under Homo sapiens, the Ratio Ki is 970. Besides, the results for the Ki on Cannabinoid receptor 2 and on Cannabinoid receptor 1 were 0.0033 µM and 3.17 µM, respectively.
